The results in this text go back to ChEMBL document CHEMBL1201862, “PubChem BioAssay data set” (2004).

Each structure is given as a SMILES string.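 Where inhibition never reached the appropriate level, the endpoint shown equals the highest concentration tested. Otherwise, values were interpolated linearly from a five-concentration, 48-hour dose response in 96-well plates. The concentration for 50% growth inhibition is given as GI50.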 The source made the active and inactive calls. No stated cut-off is given here; in the data, active = GI50 up to about 1.1 µM and inactive = higher.

Some test systems named below: CCRF-CEM; OVCAR-4; SW-620; EKVX; RXF 393; NCI-H522; SF-539; HOP-62; IGROV-1; SK-MEL-28; SK-MEL-2; UACC-257; SNB-19; HL-60; SN12C; SNB-75; LOX IMVI; NCI-H460; SK-OV-3; SF-295.
Common to all, as to assay: NCI tumour cell line growth inhibition, 48 h

For the compound `COc1cc2c(oc(=O)c3cc(C)cc(OC)c32)c2c(C3OC(C)C(O)C(C)(O)C3O)ccc(O)c12` (stereo not given), the GI50 with CCRF-CEM is 0.0955 µM (active); in the experiment with OVCAR-4, 0.467 µM (active); in the experiment on SW-620 it was 0.312 µM (active); in the experiment on EKVX, 0.776 µM (active); with RXF 393, 0.38 µM (active); in the experiment with NCI-H522, 0.389 µM (active). Also, the GI50 is 0.466 µM (active) in the experiment on SF-539; 0.284 µM (active) in the experiment on HOP-62; 0.815 µM (active) with IGROV-1; 0.861 µM (active) in the experiment on SK-MEL-28; 0.794 µM (active) in the experiment with SK-MEL-2; 0.731 µM (active) in the experiment with UACC-257. The GI50 in the experiment with SNB-19 was 0.562 µM (active); in the experiment with HL-60 it was 0.045 µM (active); with SN12C, 0.402 µM (active); in the experiment on SNB-75 it was 0.571 µM (active); in the experiment on LOX IMVI, 0.32 µM (active); in the experiment with NCI-H460, 0.142 µM (active). The figures for the GI50 with SK-OV-3 and in the experiment with SF-295 were 1.18 µM (inactive) and 0.358 µM (active), respectively.

Take `c1ccc2c(c1)NCc1cc3ccccc3nc1O2`: the GI50 in the experiment on CCRF-CEM is > 68.5 µM (inactive); in the experiment on OVCAR-4, > 100 µM (inactive); in the experiment on SW-620, > 100 µM (inactive); in the experiment on EKVX it was > 100 µM (inactive); in the experiment on RXF 393, > 100 µM (inactive); in the experiment with NCI-H522, > 100 µM (inactive). The GI50 with SF-539, with HOP-62, in the experiment on IGROV-1, in the experiment with SK-MEL-28, in the experiment with SK-MEL-2 and in the experiment with UACC-257 was > 100 µM (inactive) throughout. Moreover, the GI50 in the experiment with SNB-19 is > 100 µM (inactive); in the experiment with HL-60, 55.6 µM (inactive); in the experiment on SN12C, > 100 µM (inactive); in the experiment on SNB-75, > 84.5 µM (inactive); in the experiment with LOX IMVI, 97.1 µM (inactive); in the experiment with NCI-H460 it was > 100 µM (inactive). Besides, the GI50 in the experiment with SK-OV-3 and in the experiment with SF-295 was > 100 µM (inactive) in each case.

Turning to `COC1C(O)C(n2ncc3c(SC)nc(SC)nc32)OC1C(O)CO` (stereo not given), the GI50 with CCRF-CEM, with OVCAR-4, with SW-620, with EKVX, in the experiment on RXF 393 and in the experiment with NCI-H522 was > 100 µM (inactive) throughout. Besides, the GI50 in the experiment on SF-539 is > 100 µM (inactive); in the experiment on HOP-62, > 100 µM (inactive); with IGROV-1, > 100 µM (inactive); in the experiment with SK-MEL-28, > 100 µM (inactive); in the experiment with SK-MEL-2, > 100 µM (inactive); in the experiment with UACC-257, > 37.6 µM (inactive). Also, the GI50 in the experiment on SNB-19, in the experiment with HL-60, in the experiment on SN12C, with SNB-75, in the experiment on LOX IMVI and in the experiment on NCI-H460 was > 100 µM (inactive) each time. Besides, the GI50 in the experiment on SK-OV-3 and in the experiment with SF-295 was > 100 µM (inactive) each time.

As for `O=C1NC(=O)C(CCO)(c2ccccc2)C(=O)N1`, the GI50 in the experiment with CCRF-CEM, in the experiment with OVCAR-4, in the experiment on SW-620, with EKVX, in the experiment on RXF 393 and in the experiment on NCI-H522 was > 100 µM (inactive) throughout. The GI50 in the experiment on SF-539, with HOP-62, in the experiment with IGROV-1, in the experiment on SK-MEL-28, with SK-MEL-2 and with UACC-257 was > 100 µM (inactive) throughout. Besides, the GI50 with SNB-19 was > 100 µM (inactive); in the experiment on HL-60, > 100 µM (inactive); in the experiment with SN12C, > 100 µM (inactive); with SNB-75 it was > 100 µM (inactive); with LOX IMVI, > 31.6 µM (inactive); with NCI-H460, > 100 µM (inactive). Moreover, the GI50 with SK-OV-3 and in the experiment on SF-295 was > 100 µM (inactive) in each case.

Take `N#CC1=C(O)NC(O)=C(C#N)C1c1c(Cl)cccc1Cl`: the GI50 was > 100 µM (inactive) in the experiment on CCRF-CEM; 67.8 µM (inactive) in the experiment on OVCAR-4; 37.2 µM (inactive) in the experiment on SW-620; 40.7 µM (inactive) in the experiment with EKVX; 7.8 µM (inactive) in the experiment with RXF 393; 35.2 µM (inactive) in the experiment with NCI-H522. The GI50 in the experiment on SF-539 was 20 µM (inactive); in the experiment with HOP-62, 27.7 µM (inactive); in the experiment on IGROV-1 it was 40.6 µM (inactive); in the experiment on SK-MEL-28, 22.2 µM (inactive); in the experiment with SK-MEL-2, 18.8 µM (inactive); with UACC-257, 35.2 µM (inactive). Also, the GI50 in the experiment on SNB-19 is 38.6 µM (inactive); in the experiment on HL-60, 81.5 µM (inactive); in the experiment on SN12C, 31.8 µM (inactive); in the experiment on SNB-75 it was 11.7 µM (inactive); with LOX IMVI, 15.8 µM (inactive); in the experiment with NCI-H460 it was 20.9 µM (inactive). Further, the figures for the GI50 in the experiment with SK-OV-3 and in the experiment with SF-295 were 23.6 µM (inactive) and 34.8 µM (inactive), respectively.

For the compound `COc1ccc2[nH]c3c(C)c4ccncc4c(C)c3c2c1`, the GI50 with CCRF-CEM was 0.0982 µM (active); in the experiment with OVCAR-4, 0.258 µM (active); in the experiment with SW-620, 0.0918 µM (active); with EKVX it was 1.01 µM (active); with RXF 393 it was 0.1 µM (active); in the experiment on NCI-H522, 0.681 µM (active). The GI50 is 0.409 µM (active) in the experiment with SF-539; 0.946 µM (active) in the experiment with HOP-62; 0.289 µM (active) in the experiment on IGROV-1; 2.09 µM (inactive) in the experiment with SK-MEL-28; 1.86 µM (inactive) with SK-MEL-2; 1.85 µM (inactive) in the experiment on UACC-257. Moreover, the GI50 was 0.532 µM (active) with SNB-19; 0.532 µM (active) with HL-60; 0.177 µM (active) in the experiment on SN12C; 1.17 µM (inactive) in the experiment with SNB-75; 0.251 µM (active) in the experiment with LOX IMVI; 0.0292 µM (active) in the experiment with NCI-H460. Moreover, the values for the GI50 with SK-OV-3 and in the experiment on SF-295 were 0.75 µM (active) and 0.521 µM (active), respectively.

Take `Cc1ccc(C#CS(=O)(=O)C(F)(F)F)cc1`: the GI50 with CCRF-CEM, with OVCAR-4, in the experiment on SW-620, in the experiment with EKVX, in the experiment on RXF 393 and in the experiment with NCI-H522 was > 100 µM (inactive) each time. The GI50 with SF-539, in the experiment on HOP-62, in the experiment on IGROV-1, in the experiment with SK-MEL-28, in the experiment with SK-MEL-2 and in the experiment on UACC-257 was > 100 µM (inactive) in each case. In addition, the GI50 in the experiment on SNB-19 is > 100 µM (inactive); in the experiment with HL-60 it was > 31.6 µM (inactive); in the experiment on SN12C it was > 100 µM (inactive); with SNB-75, > 100 µM (inactive); in the experiment on LOX IMVI it was > 31.6 µM (inactive); with NCI-H460, > 100 µM (inactive). In addition, the GI50 in the experiment on SK-OV-3 is > 100 µM (inactive); in the experiment with SF-295, > 31.6 µM (inactive).
